Like-named read-outs stand apart in the source and are kept apart here. One block for each compound: values may come before it.
Assays:
CYP3A4 = CYP3A4 (Homo sapiens (Human), UniProt P08684); assay: CYP3A4 inhibition with and without preincubation; format: in vitro ADME; conditions: for inhibition at 15 µM: human, read-out: 15 μM % Inh
Procedure: (§1) Assessment of certain in vitro ADME (absorption, distribution, metabolism, and excretion) parameters for Compound I was conducted by BioFocus (Saffron Walden, UK). The results reveal that Compound I is cleared rapidly by human hepatocytes and that it has a reduced liability for time-dependent cytochrome P450 inhibition.

CYP2C9 = CYP2C9 (Homo sapiens (Human), UniProt P11712); assay: CYP2C9 inhibition with and without preincubation; format: in vitro ADME; conditions: for inhibition at 5 μM: human, 5 μM (precipitation at 15 μM), read-out: % Inh, inhibition at 5 μM reported instead
Procedure: as §1

d-U937 cells = assay: Accumulation of β catenin in d-U937 cells; format: cell-based, human; conditions: 1 μg/mL; normalised to Reference compound at 1 μg/mL
Procedure: U937 cells, a human monocytic cell line, are differentiated into macrophage-type cells by incubation with PMA (100 ng/mL) for between 48 to 72 hr. The cells are then incubated with either final concentrations of test compound or vehicle for 18 hr. The induction of β-catenin by the test compound is stopped by replacing the media with 4% formaldehyde solution. Endogenous […] is neutralised by incubating with quenching buffer (100 μL, 0.1% sodium azide, 1% H2O2 in PBS with 0.05% Tween-20) for 20 min. The cells are washed with washing buffer (200 μL; PBS containing 0.05% Tween-20) and incubated with blocking solution (200 μL; 5% milk in PBS) for 1 hr, re-washed with washing buffer (200 μL) and then incubated overnight with anti-β-catenin antibody solution (50 μL) in 1% BSA/PBS (BD, Oxford, UK).
After washing with washing buffer (3×200 μL; PBS containing 0.05% Tween-20), cells are incubated with a HRP-conjugated secondary antibody solution (100 μL) in 1% BSA/PBS (Dako, Cambridge, UK) and the resultant signal is determined colourimetrically (OD: 450 nm with a reference wavelength of 655 nm) using TMB substrate (50 μL; R&D Systems, Abingdon, UK). This reaction is stopped by addition of 1N H2SO4 solution (50 μL). Cells are then washed with washing buffer and 2% crystal violet solution (50 μL) is applied for 30 min. After washing with washing buffer (3×200 μL), 1% SDS (100 μL) is added to each well and the plates are shaken lightly for 1 hr prior to measuring the absorbance at 595 nm (Varioskan® Flash, Thermo-Fisher Scientific).
The measured OD450-655 readings are corrected for cell number by dividing the OD450-655 by the OD595 readings.

non-mutant kinases = assay: KinomeScan selectivity scores; format: binding; conditions: for number of individual kinase hits, S(1): % Ctrl <1; for number of individual kinase hits, S(10): % Ctrl <10; for number of individual kinase hits, S(35): % Ctrl <35
Procedure: Kinase enzyme binding activities of compounds disclosed herein may be determined using a proprietary assay which measures active site-directed competition binding to an immobilized ligand (Fabian, M. A. et al., Nature Biotechnol., 2005, 23:329-336). These assays may be conducted by DiscoverX (formerly Ambit; San Diego, Calif.). The percentage inhibition produced by incubation with a test compound may be calculated relative to the non-inhibited control.

[1] = Hydrolytic stability study; format: physicochemical; conditions: DMSO and water (3:1), 1 mg/mL
Procedure: Chemical stability of Compound I was assessed in a mixture of DMSO and water (3:1) at a test compound concentration of 1 mg/mL
Sample Preparation • A 1.0 mg sample of test compound was dissolved in 750 μL of DMSO. Water (250 μL) was added slowly, ensuring no precipitation occurred.
Recording Stability • A 50 μL aliquot of the test solution was removed and analysed in duplicate by 5 μL HPLC injections. The peak area for the test compound was recorded following manual integration of the corresponding UV trace. • The test solution was heated to 60° C., with stirring, and 50 μL aliquots removed for HPLC analysis at 5 and 24 h timepoints.

Chain of CYP3A4 (P08684 whole entry): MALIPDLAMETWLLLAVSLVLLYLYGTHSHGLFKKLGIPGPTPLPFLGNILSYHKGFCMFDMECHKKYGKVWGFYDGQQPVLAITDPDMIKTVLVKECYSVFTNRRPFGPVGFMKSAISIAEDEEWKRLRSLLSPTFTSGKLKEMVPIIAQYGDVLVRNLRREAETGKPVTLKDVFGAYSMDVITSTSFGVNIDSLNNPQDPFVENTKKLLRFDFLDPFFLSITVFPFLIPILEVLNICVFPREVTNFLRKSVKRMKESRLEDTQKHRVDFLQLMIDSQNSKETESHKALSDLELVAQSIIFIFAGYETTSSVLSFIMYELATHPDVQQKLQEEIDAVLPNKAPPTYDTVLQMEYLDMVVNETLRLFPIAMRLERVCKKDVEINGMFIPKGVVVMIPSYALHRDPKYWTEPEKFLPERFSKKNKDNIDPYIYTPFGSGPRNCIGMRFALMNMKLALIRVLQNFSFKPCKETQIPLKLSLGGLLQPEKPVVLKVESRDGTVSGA
Chain of CYP2C9 (P11712 whole entry): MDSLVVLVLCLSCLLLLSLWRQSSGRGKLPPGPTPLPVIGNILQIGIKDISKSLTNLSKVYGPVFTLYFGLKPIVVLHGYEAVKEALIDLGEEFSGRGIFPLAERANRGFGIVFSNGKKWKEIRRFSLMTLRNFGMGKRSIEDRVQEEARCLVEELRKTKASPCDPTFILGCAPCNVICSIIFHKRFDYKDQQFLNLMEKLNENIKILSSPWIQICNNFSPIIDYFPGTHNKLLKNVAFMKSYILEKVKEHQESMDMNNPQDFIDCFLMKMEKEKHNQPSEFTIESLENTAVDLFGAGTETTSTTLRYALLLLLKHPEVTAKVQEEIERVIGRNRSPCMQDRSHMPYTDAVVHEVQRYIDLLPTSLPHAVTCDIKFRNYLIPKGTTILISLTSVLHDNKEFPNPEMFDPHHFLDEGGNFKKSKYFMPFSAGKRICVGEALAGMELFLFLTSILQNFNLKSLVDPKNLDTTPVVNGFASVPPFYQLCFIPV

IC50 (CYP3A4; CYP3A4, 0 min preincubation): > 15000 nM | IC50 (CYP3A4; CYP3A4, 30 min preincubation): 400 nM | inhibition at 15 µM (CYP3A4; CYP3A4, 0 min preincubation): 41% | inhibition at 15 µM (CYP3A4; CYP3A4, 30 min preincubation): 92% | IC50 (CYP2C9; CYP2C9, 0 min preincubation): > 5000 nM | IC50 (CYP2C9; CYP2C9, 30 min preincubation): 1400 nM | inhibition at 5 μM (CYP2C9; CYP2C9, 0 min preincubation): 31% | inhibition at 5 μM (CYP2C9; CYP2C9, 30 min preincubation): 66%
Compound: C#CC(C)(C)c1cc(NC(=O)Nc2ccc(Oc3ccnc(Nc4cc(C)c5[nH]ncc5c4)n3)c3ccccc23)n(-c2ccc(C)cc2)n1 [Ref Cpd A, 1-(4-((2-((7-methyl-1H-indazol-5-yl)amino)pyrimidin-4-yl)oxy)-naphthalen-1-yl)-3-(3-(2-methylbut-3-yn-2-yl)-1-(p-tolyl)-1H-pyrazol-5-yl)urea, reference compound]

Compound: COCC(=O)Nc1cc(Oc2ccc(NC(=O)Nc3cc(C(C)(C)C)nn3-c3ccc(C)cc3)c3ccccc23)ccn1 [Reference Compound, N-(4-(4-(3-(3-tert-butyl-1-p-tolyl-1H-pyrazol-5-yl)ureido)naphthalen-1-yloxy)pyridin-2-yl)-2-methoxyacetamide, reference compound]
% β-catenin induction (d-U937 cells): 100% | number of individual kinase hits, S(1) (non-mutant kinases; 50 nM): 7 | number of individual kinase hits, S(10) (non-mutant kinases; 50 nM): 32 | number of individual kinase hits, S(35) (non-mutant kinases; 50 nM): 67 | number of individual kinase hits, S(1) (non-mutant kinases; 500 nM): 45 | number of individual kinase hits, S(10) (non-mutant kinases; 500 nM): 105 | number of individual kinase hits, S(35) (non-mutant kinases; 500 nM): 143

% Parent Remaining ([1]; 0 min): 100% | % Parent Remaining ([1]; 60° C., 300 min): 82% | % Parent Remaining ([1]; 60° C., 1440 min): 36%
Compound: C#Cc1cc(Nc2nccc(Oc3ccc(NC(=O)Nc4cc(C(C)C)nn4-c4ccc(C)cc4)c4ccccc34)n2)cc(C(=O)NCCN2CCOCC2)c1 [Reference Compound B, 3-ethynyl-5-((4-((4-(3-(3-isopropyl-1-(p-toly)-1H-pyrazol-5-yl)ureido)naphthalen-1-yl)oxy)pyrimidin-2-yl)amino)-N-(2-morpholinoethyl)benzamide, reference compound]

From US8927563B2, “Kinase inhibitor” (Respivert Limited, priority 2013, dated 2015)
